Patent US9504729B2, “Antiangiogenic small molecules and methods of use” (The United States of America, as represented by the …, priority 2009, dated 2016)

Experiments:
in vitro = details: pig
KDR(VEGFR2) = KDR(VEGFR2) (Homo sapiens, UniProt P35968); test: SelectScreen kinase activity profiling, KDR(VEGFR2); type: biochemical; design: % Inhibition / Mean % Inhibition: concentration or dose not given beside the values; details: KDR(VEGFR2); for Mean % Inhibition: mean of two independent trials
From the text: (§1) To characterize the RTK inhibitory activity of the antiangiogenic SMs described herein, 36 compounds were chosen and screened using Invitrogen's SelectScreen® kinase activity profiling service (described on-line at tools.invitrogen.com/content.cfm?pageid=10413#selection). VEGFR1 and FGFR2 RTK inhibitory activities were studied. […] Overall, a small minority of the SMs tested had any substantial kinase inhibitory activity. This observation supports a mechanism of antiangiogenic action other than RTK inhibition for most of the SMs described herein.

FGFR1 = FGFR1 (Homo sapiens, UniProt P11362); test: SelectScreen kinase activity profiling, FGFR1; type: biochemical; design: concentration or dose not given beside the values; details: for Mean % Inhibition: mean of two independent trials
Chain of FGFR1 (P11362 398-822 limits assumed): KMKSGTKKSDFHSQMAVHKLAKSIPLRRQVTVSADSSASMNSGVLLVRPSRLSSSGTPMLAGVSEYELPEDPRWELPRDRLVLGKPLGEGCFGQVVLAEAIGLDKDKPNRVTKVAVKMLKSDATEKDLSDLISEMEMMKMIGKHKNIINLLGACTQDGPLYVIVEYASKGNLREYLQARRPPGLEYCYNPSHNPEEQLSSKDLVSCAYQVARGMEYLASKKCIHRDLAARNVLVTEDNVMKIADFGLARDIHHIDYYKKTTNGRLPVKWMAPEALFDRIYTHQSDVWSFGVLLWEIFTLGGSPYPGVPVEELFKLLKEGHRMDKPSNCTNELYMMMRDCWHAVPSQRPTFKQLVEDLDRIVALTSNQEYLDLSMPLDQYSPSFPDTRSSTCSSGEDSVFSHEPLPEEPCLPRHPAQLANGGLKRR
From the text: as §1

[1] = first of two independent trials
[2] = second of two independent trials

Chain of KDR(VEGFR2) (P35968 20-1356): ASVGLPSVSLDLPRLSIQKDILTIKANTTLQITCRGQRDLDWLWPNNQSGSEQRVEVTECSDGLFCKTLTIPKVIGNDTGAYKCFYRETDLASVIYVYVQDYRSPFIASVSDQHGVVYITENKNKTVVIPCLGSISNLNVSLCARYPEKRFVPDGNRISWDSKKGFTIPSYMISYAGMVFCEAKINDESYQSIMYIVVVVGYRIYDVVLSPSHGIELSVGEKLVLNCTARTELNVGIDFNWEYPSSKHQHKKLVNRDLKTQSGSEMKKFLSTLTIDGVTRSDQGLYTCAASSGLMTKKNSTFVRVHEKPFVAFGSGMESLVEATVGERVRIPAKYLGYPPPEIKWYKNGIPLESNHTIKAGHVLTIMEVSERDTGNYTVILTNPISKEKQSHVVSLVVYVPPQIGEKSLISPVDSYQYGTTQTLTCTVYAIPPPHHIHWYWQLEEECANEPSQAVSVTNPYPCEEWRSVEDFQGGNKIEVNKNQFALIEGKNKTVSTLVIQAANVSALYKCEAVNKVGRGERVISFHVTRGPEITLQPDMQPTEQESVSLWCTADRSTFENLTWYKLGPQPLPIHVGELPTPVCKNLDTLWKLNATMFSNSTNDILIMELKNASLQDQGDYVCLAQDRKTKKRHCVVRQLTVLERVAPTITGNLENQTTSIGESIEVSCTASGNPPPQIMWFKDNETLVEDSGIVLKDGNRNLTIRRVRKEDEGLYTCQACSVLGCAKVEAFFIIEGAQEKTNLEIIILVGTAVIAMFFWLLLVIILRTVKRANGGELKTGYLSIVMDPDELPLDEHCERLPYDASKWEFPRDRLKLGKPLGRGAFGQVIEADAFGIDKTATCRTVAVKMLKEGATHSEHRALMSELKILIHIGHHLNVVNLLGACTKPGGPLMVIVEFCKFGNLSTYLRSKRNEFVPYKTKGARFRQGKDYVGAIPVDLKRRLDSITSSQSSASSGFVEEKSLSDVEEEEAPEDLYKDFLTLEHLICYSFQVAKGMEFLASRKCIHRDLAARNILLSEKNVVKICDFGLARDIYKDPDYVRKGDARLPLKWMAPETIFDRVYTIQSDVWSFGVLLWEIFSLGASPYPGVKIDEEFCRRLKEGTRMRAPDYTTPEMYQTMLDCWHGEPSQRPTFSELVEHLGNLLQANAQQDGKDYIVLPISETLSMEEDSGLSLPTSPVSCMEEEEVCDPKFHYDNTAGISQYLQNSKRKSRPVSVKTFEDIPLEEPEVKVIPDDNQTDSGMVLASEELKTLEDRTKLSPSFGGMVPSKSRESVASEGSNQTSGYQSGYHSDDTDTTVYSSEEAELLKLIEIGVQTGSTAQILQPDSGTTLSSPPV

Row | Compound | cytotoxicity (in vitro) [%] | % Inhibition (KDR(VEGFR2); [1]) [%] | Mean % Inhibition (KDR(VEGFR2)) [%] | % Inhibition (KDR(VEGFR2); [2]) [%] | % Inhibition (FGFR1; [1]) [%] | Mean % Inhibition (FGFR1) [%] | % Inhibition (FGFR1; [2]) [%]
1 | Nc1ccn(C2OC(CO)C3[O][Sn]([c]4ccccc4)([c]4ccccc4)[O]C32)c(=O)n1 (stereo not shown) [Compound 36, 4-amino-1-[6-(hydroxymethyl)-2,2-diphenyl-3a,4,6,6a-tetrahydrofuro[3,4-d][1,3,2]dioxastannol-4-yl]pyrimidin-2-one] | 7.66 |  |  |  |  |  | 
2 | CC(C)(C)c1cc(O)ccc1O [Compound 38, 2-tert-butylbenzene-1,4-diol] | 6.74 |  |  |  |  |  | 
3 | Cc1cc(O)c(-c2cc(O)c(C)cc2O)cc1O [Compound 40, 2-(2,5-dihydroxy-4-methylphenyl)-5-methylbenzene-1,4-diol] | 7.23 |  |  |  |  |  | 
4 | Cc1ccc(S(=O)(=O)OCC(=O)O)cc1 [Compound 41, 2-(4-methylphenyl)sulfonyloxyacetic acid] | 7.59 |  |  |  |  |  | 
5 | CC1(C)[C@@H]2CC[C@]1(C)[C@H](OC(=O)CSC#N)C2 [Compound 42, [(1S,4R,6R)-1,7,7-trimethyl-6-bicyclo[2.2.1]heptanyl]2-thiocyanatoacetate] | 6.99 |  |  |  |  |  | 
6 | CS(=O)(=O)c1ccc(/C=N/NC(N)=S)cc1 [Compound 43, [(E)-(4-methylsulfonylphenyl)methylideneamino] thiourea] | 6.44 |  |  |  |  |  | 
7 | COc1ccc(NCc2c(O)ccc3ccccc23)cc1 [Compound 44, 1-[(4-methoxyanilino)methyl]naphthalen-2-ol] | 6.45 |  |  |  |  |  | 
8 | Cc1cc(O)c(-c2cc(O)c(C)cc2O)cc1O [compound 2805] |  | 42 | 47 | 52 | 1 | 6 | 10
9 | CC1(C)C2CCC1(C)C(OC(=O)CSC#N)C2 (stereo not shown) [compound 3535] |  | 10 | 8 | 5 | −1 | −2 | −3
10 | CC(C)(C)c1cc(O)ccc1O [compound 4972] |  | 2 | 7 | 11 | 3 | −2 | −7
11 | OC(c1cc(-c2ccccc2)nc2c1ccc1ccccc12)C1CCCCN1 (stereo not shown) [compound 13480] |  | 4 | 3 | 2 | 5 | 8 | 10
12 | Cc1ccc(S(=O)(=O)OCC(=O)O)cc1 [compound 16555] |  | 11 | 11 | 11 | 3 | 3 | 3
13 | O=C(c1no[n+]([O-])c1C(=O)c1csc2ccccc12)c1csc2ccccc12 [compound 18877] |  | 10 | 7 | 4 | −3 | −2 | 0
14 | CS(=O)(=O)c1ccc(/C=N/NC(N)=S)cc1 [compound 27063] |  | 12 | 11 | 11 | −3 | −3 | −2
15 | NC(=O)SCC(=O)Nc1ccc2ncccc2c1 [compound 36738] |  | 16 | 16 | 17 | −1 | 1 | 4
16 | COc1ccc(NCc2c(O)ccc3ccccc23)cc1 [compound 47924] |  | 21 | 19 | 18 | 1 | 2 | 3
17 | O=[As](O)(O)c1ccc(Cc2ccc([As](=O)(O)O)cc2)cc1 [compound 48300] |  | 76 | 77 | 78 | 8 | 9 | 10
18 | CC(C)(C)c1c2c(c(C(C)(C)C)c3c1OCN(Cc1ccccc1)C3)OCN(Cc1ccccc1)C2 [compound 48458] |  | 13 | 11 | 9 | 5 | 6 | 8
